{
  "source": "patent US20100209436A1",
  "about": "“METHOD FOR TREATING DISEASES RELATED TO MITOCHONDRIAL DYSFUNCTION” (priority 2007, published 2010)",
  "type_in_all_cases": "cell-based, human",
  "key": {"HeLa cells [1]": {"system": "HeLa cells", "assay": "Uncoupler experiments: mitochondrial morphology and cytochrome c by confocal fluorescence microscopy", "protocol": "b, Quantification of mitochondrial morphology in cells: Tubular, at least one mitochondrial tubule of 5 μm or more; intermediate, at least one between 0.5 and 5 μm but none more than 5 μm; fragmented, none of more than 0.5 μm in length. Error bars represent standard deviation of five slides evaluated.\n(§1) a, HeLa cells and human fibroblasts were treated with CCCP (20 μM) for 6 h and total cell extracts were subjected to western blotting with OPA1 antibodies. b-d, Cells were treated or not (Control) with CCCP (20 μM) for 30 min, washed, and incubated further with medium lacking CCCP for the indicated time periods or CCCP (20 μM) was left for 6 h. In parallel, these experiments were performed in the presence of cycloheximide (CHX; 175 μg/ml). Cells were stained with MitoTracker (red) and with cytochrome c antibodies (green).\n(§2) Live cells were fluorescently labeled with MitoTracker® Red CMXRos (Molecular probes, USA) for mitochondria or with 4′,6-diamidino-2-phenylindole dihydrochloride (DAPI; Molecular probes, USA) for the nucleus, subsequently fixed, and permeabilised. Immunostaining was carried out with mouse anti-cytochrome c monoclonal antibody (clone 6H2.B4; BD Biosciences) and chicken anti-GFP antibody (Ayes Lab Inc., USA). The following secondary antibodies conjugated to fluorescent dyes were used: Alexa Fluor® 488 anti-mouse IgG (H+L) (Molecular probes, USA), Cy3-conjugated anti-mouse IgG and Fluorescein (FITC)-conjugated anti-chicken IgG (Jackson Immunoresearch, USA). Cells were mounted with Prolong® Gold antifade reagent (Molecular probes, USA). All treatments were done according to the manufacturers' instructions. Mitochondrial morphology was analysed by confocal microscopy using a Zeiss LSM 510 (Carl Zeiss Microscopy, Jena, Germany) equipped with a 63× objective. For all imaging, 512×512 pixel images of single confocal planes were acquired and processed with the Bitplane Imaris 4 software. This technique was particularly employed for FIGS. 5 to 7 and 9 and the corresponding examples."}, "[2]": {"system": "OPA1 processing in HeLa cells", "assay": "Protease inhibitors on uncoupler-induced conversion of larger OPA1 isoforms to smaller isoforms", "conditions": "HeLa cells preincubated 10 min with inhibitor, then CCCP 25 min", "protocol": "a, The protease inhibitor o-phenanthroline (o-Phe) and partially DCI (3,4-Dichloroisocoumarin), but not phenylmethylsulphonylfluoride (PMSF) block uncoupler induced conversion of larger OPA1 isoforms to smaller isoforms. HeLa cells were preincubated for 10 min with or without the protease inhibitors at the indicated concentration before CCCP (20 μM) was added. Cells were further incubated for 25 min before they were harvested, lysed in loading buffer, loaded on a SDS-PAGE, and immunoblotted with OPA1 antibodies."}, "[3]": {"system": "OPA1 isoforms in HeLa cells or fibroblasts", "assay": "Uncoupler experiments: OPA1 isoform pattern by western blot", "conditions": "CCCP 20 μM 6 h", "protocol": "as §1\nd, OPA1 isoforms by western blot analysis. Extracts of untreated cells (C) and of cells treated for 6 h with CHX alone (+CHX 6 h) were used as controls.\nIt was further observed whether dissipation of the membrane potential is sufficient to trigger changes in abundance of OPA1 isoforms and fragmentation of mitochondria. […] Proteolytic processing occurs within mitochondria as shown by cellular fractionation experiments (FIG. 10c). This is specific for OPA1 since degradation of other mitochondrial proteins is not observed (FIG. 10c). Fragmentation of mitochondria occurred rapidly within 15 to 30 min after addition of CCCP (FIG. 9bc). Processing of OPA1 took place within the same narrow time frame (FIG. 9d). Impairment of fusion of mitochondria may therefore be due to rapid inactivation of OPA1 by proteolysis of large isoforms. […]"}, "[4]": {"system": "OPA1 isoforms in HeLa cells", "assay": "Pulse-chase experiment of OPA1 isoforms", "conditions": "20 μM CCCP for 1 hour during chase", "protocol": "HeLa cells were subjected to radioactive labeling of newly synthesized proteins. After labeling cells were washed, incubated for the indicated time in the absence of radiolabeled amino acids (chase) either in the presence or the absence of CCCP (20 μM). Cells were lysed at indicated times of chase and subjected to immunoprecipitation with antibodies raised against OPA1. Elution fractions were analyzed by digital autoradiography (top panel) and the same membrane was subjected to western blot analysis using OPA1 antibodies (bottom panel). The different OPA1 isoforms are indicated by arrows and named L1-, L2-, S3-, S4- and S5-OPA1.\nThe large OPA1 isoforms l-OPA1#1 and l-OPA1#2 are converted to the small OPA1 isoforms s-OPA1#3, s-OPA1#4 and/or s-OPA1#5. […] Then cells were washed 3 times with PBS and 1 ml fresh DMEM medium +10% FCS without radioactive methione (chase) was added. Cells were either treated with 20 μM CCCP for 1 hour or not. OPA1 was immunoprecipitated using an antibody raised against the C-terminus of OPA1 and OPA1 was detected by autoradiography and by western-blotting after SDS-PAGE. […] Accordingly, it can be concluded that l-OPA1 isoforms are actually converted to s-OPA1 isofoms, in particular towards s-OPA1#5."}, "[5]": {"system": "OPA1 isoforms in HeLa cells", "assay": "Ratios of OPA1 isoforms by western blot densitometry, uncoupler experiment", "protocol": "as §1\nCell pellets were lysed in Lämmli-buffer 1× and heated for 5 min at 95° C. Samples equivalent to ˜10^6 cells were loaded on a 10% acrylamid gel (12 cm high×16 cm wide plates separated by 1.5 mm thick spacers). Gels were run for 3.5 hours at constant 30 mA or until the 37 kD band of the BioRad Precision Plus Protein standard reaches the bottom of the gel. The proteins were transferred to a nitrocellulose membrane by semi-dry blotting for 1.5 hours at 200 mA using Tris/glycine buffer. The membrane was incubated in TBS buffer containing 5% non fat milk powder for 30 min. The membrane was then incubated in TBS buffer containing 5% non fat milk powder and affinity purified rabbit OPA1 antibodies (raised against the C-terminal peptide of OPA1: […] (SEQ ID No: 30)) diluted 1:500 for 1 hour. After three rapid washes to remove the primary antibody in excess, the membrane was further incubated for 1 hour in TBS containing 5% non fat milk powder and secondary antibodies anti rabbit conjugated to HRP (horseradish peroxidase) diluted 1:10,000 (BioRad). The membrane was then washed in TBS, once rapidly, and four more times for 5 min each. ECL reagent (enhanced chemoluminescence reagent) was used to reveal the different OPA1 isoform bands on the membrane. Expositions of 1 to 2 min were usually sufficient to detect all OPA1 forms. The compositions of the buffers and gels to be employed are as follows.\nFrom the results of the below described uncoupler experiments using HeLa cells (Example 9; FIG. 9a), the ratio of the relative amount of various OPA1 isoforms was determined. For this purpose, total protein extracts were separated by SDS-PAGE and immunoblotted using an antibody raised against the C-terminus of OPA1. The western blot was scanned and densitometrically analysed using standard imaging software. The intensity of each band was determined and the background intensity was subtracted."}, "HeLa cells [6]": {"system": "HeLa cells", "assay": "Staurosporine-induced apoptosis: mitochondrial fragmentation, cytochrome c release, OPA1 isoforms", "conditions": "1 μM staurosporine", "protocol": "HeLa cells were treated with 1 μM staurosporine for the indicated time periods, stained with MitoTracker (red) and with cytochrome c antibodies (green).\nb, Cells were classified. Tubular, at least one mitochondrial tubule of 5 μm or more; intermediate, at least one between 0.5 and 5 μm but none more than 5 μm; fragmented, none of more than 0.5 μm in length. A representative experiment out of three is shown.\nc, Cells were classified for cytochrome c release by immunostaining. Not released, completely colocalised with MitoTracker; intermediate, partly co-localised with MitoTracker; and released, not co-localised with MitoTracker.\nd, OPA1 protein isoforms were determined by western blot analysis of total cell extracts. Total cell extracts (C) and isolated mitochondria (M) from untreated HeLa cells were used as controls.\nas §2"}, "[7]": {"conditions": "HeLa +CCCP (20 μM, 6 h), densitometry of western blot"}},
  "note": "“Also recorded” adds a separate entry of the source.",
  "data": [
    {"smiles": "C[C@@H]1C[C@@H]([C@H](O)CC2CC(=O)NC(=O)C2)C(=O)[C@@H](C)C1", "note": "[cycloheximide]", "values": [
      {"measurement": "recovery of tubular mitochondrial network and reappearance of large OPA1 isoforms after CCCP removal", "setting": "HeLa cells [1]; CHX 175 μg/ml", "value": "impaired"},
      {"measurement": "effect on uncoupler-induced fragmentation and OPA1 processing", "setting": "HeLa cells [1]; CHX 175 μg/ml with CCCP 20 μM", "value": "did not interfere"}
    ]},
    {"smiles": "O=c1oc(Cl)c(Cl)c2ccccc12", "note": "[DCI, 3,4-Dichloroisocoumarin]", "values": [
      {"measurement": "block of uncoupler (CCCP 20 μM) induced proteolytic processing of OPA1", "setting": "[2]", "value": "(at least partially) blocked"}
    ]},
    {"smiles": "N#CC(C#N)=NNc1cccc(Cl)c1", "note": "[CCCP, carbonyl cyanide 3-chlorophenylhydrazone]", "values": [
      {"measurement": "change of OPA1 isoform pattern", "setting": "[3]", "value": "dramatic shift of OPA1 isoforms towards the smaller isoforms"},
      {"measurement": "time to fragmentation of mitochondria after addition", "setting": "HeLa cells [1]; CCCP 20 μM", "value": "15 to 30", "unit": "min"},
      {"measurement": "mitochondrial morphology upon removal of the uncoupler", "setting": "HeLa cells [1]; CCCP 20 μM 30 min, then washed", "value": "normal mitochondrial morphology was recovered"},
      {"measurement": "cytochrome c release", "setting": "HeLa cells [1]; CCCP treatment", "value": "not accompanied by cytochrome c release"},
      {"measurement": "change of OPA1 isoforms in pulse-chase (autoradiography and western blot)", "setting": "[4]", "value": "shift from the large isoforms to the short isoforms"},
      {"measurement": "OPA1#3 + #4 + #5/ all bands %", "setting": "[5]; [7]", "value": 93.0, "unit": "%"},
      {"measurement": "OPA1#3 + #5/ all bands %", "setting": "[5]; [7]", "value": 64.8, "unit": "%"},
      {"measurement": "OPA1#3/ all bands %", "setting": "[5]; [7]", "value": 19.2, "unit": "%"},
      {"measurement": "OPA1#4/ all bands %", "setting": "[5]; [7]", "value": 28.2, "unit": "%"},
      {"measurement": "OPA1#5/ all bands %", "setting": "[5]; [7]", "value": 45.6, "unit": "%"},
      {"measurement": "fold increase of OPA1#3 + #4 + #5/ all bands", "setting": "[5]; HeLa +CCCP versus HeLa −CCCP", "value": 2.0, "unit": "fold"},
      {"measurement": "fold increase of OPA1#3 + #5/ all bands", "setting": "[5]; HeLa +CCCP versus HeLa −CCCP", "value": 3.2, "unit": "fold"},
      {"measurement": "fold increase of OPA1#3/ all bands", "setting": "[5]; HeLa +CCCP versus HeLa −CCCP", "value": 1.9, "unit": "fold"},
      {"measurement": "fold increase of OPA1#4/ all bands", "setting": "[5]; HeLa +CCCP versus HeLa −CCCP", "value": 1.0, "unit": "fold"},
      {"measurement": "fold increase of OPA1#5/ all bands", "setting": "[5]; HeLa +CCCP versus HeLa −CCCP", "value": 4.4, "unit": "fold"}
    ]},
    {"smiles": "O=S(=O)(F)Cc1ccccc1", "note": "[PMSF, phenylmethylsulphonylfluoride]", "values": [
      {"measurement": "block of uncoupler (CCCP 20 μM) induced proteolytic processing of OPA1", "setting": "[2]", "value": "not"}
    ]},
    {"smiles": "CN[C@@H]1C[C@H]2O[C@@](C)([C@@H]1OC)n1c3ccccc3c3c4c(c5c6ccccc6n2c5c31)C(=O)NC4", "note": "[staurosporine]", "values": [
      {"measurement": "time to fragmentation of mitochondria", "setting": "HeLa cells [6]", "value": "2 to 3", "unit": "h"},
      {"measurement": "cells that released cytochrome c", "setting": "HeLa cells [6]; only after 5-6 h", "value": "more than 50%"},
      {"measurement": "change of OPA1 isoforms", "setting": "HeLa cells [6]; western blot", "value": "disappearance of the two largest OPA1 isoforms"}
    ]},
    {"smiles": "c1cnc2c(c1)ccc1cccnc12", "note": "[o-phenanthroline]", "values": [
      {"measurement": "block of uncoupler (CCCP 20 μM) induced proteolytic processing of OPA1", "setting": "[2]", "value": "block; also recorded: (at least partially) blocked"},
      {"measurement": "block of uncoupler (CCCP 20 μM) induced proteolytic processing of OPA1", "setting": "[2]; listed as ortho-phenanthroline", "value": "inhibited"}
    ]}
  ]
}
